{"source": "patent US12502374B2", "about": "“Composition for preventing, alleviating, or treating inflammatory disease containing isookanin or salt thereof as active ingredient” (BioSpectrum, Inc., priority 2020, dated 2025)", "key": {"recombinant kallikrein-5": {"molecular_target": "T1, recombinant kallikrein-5 (Homo sapiens, UniProt Q9Y337)", "T1 construct": "purchased R&D Systems, USA", "T1 sequence (Q9Y337 23-293)": "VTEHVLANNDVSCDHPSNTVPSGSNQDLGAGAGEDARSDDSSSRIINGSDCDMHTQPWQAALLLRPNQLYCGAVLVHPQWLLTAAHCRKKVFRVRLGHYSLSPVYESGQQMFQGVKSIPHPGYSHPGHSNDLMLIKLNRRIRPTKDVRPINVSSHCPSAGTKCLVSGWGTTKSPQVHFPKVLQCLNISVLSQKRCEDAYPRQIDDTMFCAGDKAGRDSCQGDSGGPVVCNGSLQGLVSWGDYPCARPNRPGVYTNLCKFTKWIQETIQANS", "assay": "Kallikrein-5 enzymatic activity, fluorescent substrate Boc-Val-Pro-Arg-AMC", "assay_type": "biochemical", "conditions": "10 and 20 ppm; FIG. 2", "procedure": "To measure the enzymatic activity of kallikrein-5 which is a trypsin-like proteolytic enzyme present in skin keratinocytes, recombinant kallikrein-5 (R&D Systems, USA) was allowed to react with the fluorescently labeled substrate Boc-Val-Pro-Arg-AMC (R&D Systems, USA), and the enzymatic activity was measured. 50 μl of 2 μg/ml recombinant kallikrein-5 was treated with different concentrations (10 and 20 ppm) of isookanin and then allowed to react at room temperature for 10 minutes, and then 50 μl of 800 μM kallikrein-5 substrate was added thereto, followed by measurement in kinetic mode at 380 nm/480 nm fluorescence for 5 minutes. As a positive control, the trypsin inhibitor Leupeptin (Sigma Aldrich, USA) was used, and as a negative control, non-treated recombinant kallikrein was used. For evaluation of the degree of activity, based on the value obtained by subtracting the lowest fluorescence value from the highest fluorescence value among the measurement values under each condition, the fluorescence value of the group treated with isookanin was compared with the fluorescence value of the group not treated with isookanin, and the results are shown in FIG. 2."}, "COX-2": {"molecular_target": "T2, COX-2 (Homo sapiens, UniProt P35354)", "T2 construct": "BioVision", "T2 sequence (P35354 18-604)": "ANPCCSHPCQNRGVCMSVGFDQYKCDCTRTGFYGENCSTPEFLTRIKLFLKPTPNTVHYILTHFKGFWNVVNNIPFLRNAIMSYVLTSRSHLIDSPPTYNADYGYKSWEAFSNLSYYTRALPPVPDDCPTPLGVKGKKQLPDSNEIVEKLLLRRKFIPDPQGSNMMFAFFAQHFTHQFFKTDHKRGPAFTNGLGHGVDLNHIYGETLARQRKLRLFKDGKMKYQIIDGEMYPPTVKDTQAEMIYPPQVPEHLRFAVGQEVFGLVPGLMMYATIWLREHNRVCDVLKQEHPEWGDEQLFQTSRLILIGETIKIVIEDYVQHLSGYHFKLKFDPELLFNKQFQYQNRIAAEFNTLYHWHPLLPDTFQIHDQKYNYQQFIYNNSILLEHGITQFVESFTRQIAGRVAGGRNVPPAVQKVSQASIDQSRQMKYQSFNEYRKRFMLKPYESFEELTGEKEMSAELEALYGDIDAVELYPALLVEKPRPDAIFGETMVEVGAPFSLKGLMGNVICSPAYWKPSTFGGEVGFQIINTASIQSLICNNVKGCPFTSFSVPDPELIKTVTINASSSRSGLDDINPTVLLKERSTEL", "assay": "COX-2 enzyme activity, cyclooxygenase (COX) activity assay kit", "assay_type": "biochemical", "conditions": "5, 10 and 20 ppm; FIG. 5", "procedure": "COX-2 enzyme inhibitory activity was measured using a cyclooxygenase (COX) activity assay kit (BioVision). 2 μl of COX probe, 4 μl of diluted COX cofactor, and varying concentrations (5, 10, and 20 ppm) of isookanin were added to the COX assay buffer included in the kit. As a negative control, DMSO was added instead of isookanin, and as a positive control, the COX-2 inhibitor celecoxib was added."}, "PGE2": {"system": "PGE2", "assay": "UV-induced PGE2 secretion in human epidermal keratinocytes (ELISA)", "assay_type": "cell-based", "conditions": "1, 5 and 10 ppm, UVB 20 mJ/cm^2, FIG. 6", "procedure": "Human epidermal keratinocytes (HEKs) were seeded in a 24-well microplate at a density of about 2×10^5 cells per well, and cultured in an incubator for 24 hours at 37° C. under 5% CO2. Thereafter, the cells were treated with each of 1, 5, and 10 ppm of isookanin, and then irradiated with UV light (UVB 20 mJ/cm^2), and then the cell culture medium was collected. Next, the secretion level of PGE2 was measured using an ELISA kit. As a negative control (−), human keratinocytes not treated with isookanin and UV light (UVB) were used."}, "HMEC-1": {"system": "HMEC-1", "assay": "PGE2-induced vascular endothelial cell migration (scratch assay)", "assay_type": "cell-based, human", "conditions": "2 hours pretreatment; 20 μM PGE2, 24 hours; FIG. 9", "procedure": "Human vascular endothelial cells (HMEC-1) were seeded in a 12-well plate at a density of 2×10^5 cells per well and cultured in an incubator for 24 hours at 37° C. under 5% CO2. After the cells in each well were grown to 80% confluency, the central part of each well was scratched using a yellow pipette tip. Next, each well was pretreated with each concentration of isookanin for 2 hours and then treated with 20 μM PGE2 and incubated for 24 hours. As a negative control, 100 ng/ml of VEGF was used. After 24 hours of incubation, the degree of vascular cell migration was observed using a microscope, and the results were photographed with a microscope camera and shown in FIG. 9."}, "human skin": {"system": "human skin", "assay": "Human skin safety, repeated insult patch test (Finn chamber)", "assay_type": "in vivo", "conditions": "30 healthy adults", "procedure": "In order to confirm that the isookanin according to the present invention is safe for human skin, a skin safety verification test was performed. To this end, a repeated insult patch test was conducted.\nNourishing creams containing the isookanin in amounts of 0.1%, 0.5% and 1%, respectively, were prepared. Specifically, a water phase containing purified water, triethanolamine and propylene glycol was dissolved by heating to 70° C. and then emulsified by adding a solution obtained by dissolving beeswax, liquid paraffin, an oil component, an emulsifier and a preservative by heating to 70° C. After completion of emulsification, the solution was cooled to 45° C., and the isookanin was added thereto in amounts of 0.1%, 0.5% and 1% and dispersed therein, followed by cooling to 30° C. As the content of the isookanin was increased from 0.1% to 0.5% and 1%, the content of liquid paraffin was decreased from 9.91% to 9.51% and 9.01%, respectively, thereby preparing nourishing creams.\nUsing the nourishing creams prepared as described above, a repeated insult patch test was conducted on the upper arm areas of 30 healthy adults every other day for a total of 9 times for 24 hours per time to determine whether the isookanin irritated the skin.\nThe patch test was performed using a Finn chamber (Epitest Ltd., Finland). 15 μl of each of the external skin preparations was dropped into the chamber, and then the patch test was performed.\n[Equation 1] Average degree of reaction=[[(reaction index×degree of reaction)/(total number of subjects×highest score (4)]×100]÷number of tests (9)\nIn the degree of reaction, ± represents a score of 1, + represents a score of 2, and ++ represents a score of 4. When the average degree of reaction is less than 3, the corresponding composition is determined to be safe."}}}
{"smiles": "O=C1C[C@@H](c2ccc(O)c(O)c2)Oc2c1ccc(O)c2O", "note": "[isookanin]", "values": [{"measurement": "inhibition of kallikrein-5 activity", "setting": "recombinant kallikrein-5", "value": "inhibitory effect on kallikrein-5 activity in a concentration-dependent manner"}, {"measurement": "inhibition of COX-2 enzyme activity", "setting": "COX-2", "value": "inhibiting the activity of COX-2 enzyme in a concentration-dependent manner"}, {"measurement": "inhibition of UV-induced PGE2 expression", "setting": "PGE2", "value": "inhibiting the expression of PGE2 in a concentration-dependent manner"}, {"measurement": "inhibition of human vascular endothelial cell migration induced by PGE2", "setting": "HMEC-1", "value": "effectively inhibiting human vascular endothelial cell migration induced by PGE2"}, {"measurement": "Average degree of reaction", "setting": "human skin; upper arm, 24 hours per patch, Equation 1, less than 3 is determined to be safe", "value": "≤ 3"}, {"measurement": "skin safety conclusion of the repeated insult patch test", "setting": "human skin; nourishing creams with 0.1%, 0.5% and 1% isookanin", "value": "safe substance that shows no remarkable cumulative irritation aspect"}]}
